In US20130317073A1, “METHODS OF PEST CONTROL IN SOYBEAN” (SYNGENTA LIMITED, priority 2011, published 2013):

System: Euschistus heros
Assay: Euschistus heros (neotropical brown stink bug) contact/feeding activity on sprayed soybean plants
Type: in vivo
Conditions: 120 h, N-2 nymphs on sprayed 2 week old soybean plants, evaluation 5 days after infestation, average of two replicates, read-out: mortality and growth effects; for mortality at 3 ppm: Rate 3 ppm; for mortality at 6 ppm: Rate 6 ppm; for mortality at 12.5 ppm: Rate 12.5 ppm
Experimental: Euschistus heros (Neotropical Brown Stink Bug) (Contact/Feeding Activity)
2 week old soybean plants are sprayed in a turn table spray chamber with the diluted spray solutions. After drying, 2 soybean seeds are added and plants are infested with 10 N-2 nymphs of the neotropical brown stink bug Euschistus heros in plastic test boxes. Boxes are incubated in a climate chamber at 25° C. and 60% RH. Evaluation is done 5 days after infestation on mortality and growth effects. The data is an average of two replicates.

For `O=C(CNC(=O)c1ccc(C2=NOC(c3cc(Cl)cc(Cl)c3)(C(F)(F)F)C2)c2ccccc12)CC(F)(F)F` (stereo not drawn) [Compound 6], the mortality at 3 ppm was 95%, the mortality at 6 ppm was 100% and the mortality at 12.5 ppm was 95%.

`Cc1cc(C2=NOC(c3cc(Cl)cc(Cl)c3)(C(F)(F)F)C2)ccc1C(=O)NC1CS(=O)(=O)C1` (stereo not drawn) [Compound 2] showed a mortality at 3 ppm of 65%, a mortality at 6 ppm of 95% and a mortality at 12.5 ppm of 95%.

For `Cc1cc(C2=NOC(c3cc(Cl)cc(Cl)c3)(C(F)(F)F)C2)ccc1C(=O)NCC(=O)CC(F)(F)F` (stereo not drawn) [Compound 5], the mortality at 3 ppm was 85%, the mortality at 6 ppm was 90% and the mortality at 12.5 ppm was 100%.

`CCCCNC(=O)c1ccc(C2=NOC(c3cc(Cl)cc(Cl)c3)(C(F)(F)F)C2)cc1C` (stereo not drawn) [Compound 8] was tested, and the mortality at 3 ppm was 5%, the mortality at 6 ppm was 35% and the mortality at 12.5 ppm was 95%.

For `O=C(CNC(=O)c1ccc(C2=NOC(c3cc(Cl)cc(Cl)c3)(C(F)(F)F)C2)cc1)CC(F)(F)F` (stereo not drawn) [Compound 7], the mortality at 3 ppm was 5%, the mortality at 6 ppm was 20% and the mortality at 12.5 ppm was 60%.

With `Cc1cc(C2=NOC(c3cc(Cl)cc(Cl)c3)(C(F)(F)F)C2)ccc1C(=O)NCC(F)(F)F` (stereo not drawn) [Compound 9] the mortality at 3 ppm was 15%, the mortality at 6 ppm was 75% and the mortality at 12.5 ppm was 70%.

For `Cc1cc(C2=NOC(c3cc(Cl)cc(Cl)c3)(C(F)(F)F)C2)ccc1C(=O)NC1(C)CSC1` (stereo not drawn) [Compound 3], the mortality at 3 ppm was 0%, the mortality at 6 ppm was 20% and the mortality at 12.5 ppm was 75%.

With `Cc1cc(C2=NOC(c3cc(Cl)cc(Cl)c3)(C(F)(F)F)C2)ccc1C(=O)NC1CSC1` (stereo not drawn) [Compound 1] the mortality at 3 ppm was 65%, the mortality at 6 ppm was 80% and the mortality at 12.5 ppm was 85%.

In the case of `COC(=O)N1CC(NC(=O)c2ccc(C3=NOC(c4cc(Cl)cc(Cl)c4)(C(F)(F)F)C3)cc2C)C1` (stereo not drawn) [Compound 4], the mortality at 3 ppm is reported as 15%, the mortality at 6 ppm is reported as 25% and the mortality at 12.5 ppm is reported as 35%.
